Laboratory results taken from US20210220376A1, “ADDICTION TREATMENT OF AN ALCOHOL-CONSUMING PATIENT POPULATION” (Amygdala Neurosciences, Inc., priority 2018, published 2021).

Assays:
[1] = system: healthy male alcohol drinkers; assay: Phase 1 study of compound (2) with ethanol: pharmacodynamics (mDEQ-5); type: in vivo, human
Description: The exploratory pharmacodynamic endpoints included maximum effect (Emax), maximum change from baseline (CFBmax), time to Emax (TEmax), and time-averaged area under the effect curve (TA_AUE), as applicable, derived from Modified 5-item Drug Effects Questionnaire (mDEQ-5) scores.
mDEQ-5 scores were summarized by timepoint and treatment using descriptive statistics. Derived endpoints (Emax, CFBmax, TEmax, TA_AUE, as applicable) were summarized by treatment using descriptive statistics. For each mDEQ-5-derived endpoint, an analysis of variance (ANOVA) was conducted to compare each of active doses to placebo with dose group as a factor. Results were presented in terms of LSMEANS, treatment differences in LSMEANS, 95% CI and p-values.
Ethanol consumption and number of EtOH doses consumed (i.e., number of drinks) during the repeat EtOH administration sessions were summarized using descriptive statistics.

[2] = Phase 1 study of compound (2) with ethanol: pharmacokinetics of compound (1) and breath alcohol; details: after repeated EtOH administration
Description: Plasma concentrations of compound (1) and BrAC were summarized and listed by treatment, subject and timepoint. Pharmacokinetic parameters derived for compound (1) were also summarized and listed by treatment and subject. Pharmacokinetic parameters were estimated using a non-compartmental approach with a log-linear terminal phase assumption. The trapezoidal rule was used to estimate the area under the curve (linear trapezoidal linear interpolation) and the terminal phase will be estimated by maximizing the coefficient of determination estimated from the log-linear regression model. However, AUC0-∞, AUClast/∞, λz and t1/2 parameters were to be estimated for individual concentration-time profiles only when the terminal log-linear phase could be reliably characterized.
Proportionality analysis was done using a power model. The power model was defined as: […]
A linear model with ln-transformed dose as a continuous effect was fitted. A point estimate and a 90% CI was derived for the slope (β). The parameter could be considered to be dose proportional if the 90% confidence interval of the slope β was within [1+ln(0.8)/ln(r), 1+ln(1.25)/ln(r)], where r=the highest dose studied/the lowest dose (Smith et al., “Confidence interval criteria for assessment of dose proportionality.” Pharm Res. 17 (10):1278-83 (2000)).

O=C(NCc1ccc(-c2ccn(COP(=O)(O)O)c(=O)c2)cc1)c1c(Cl)cccc1Cl [Compound (2), phosphoric acid mono-(4-{4-[(2,6-dichloro-benzoylamino)-methyl]-phenyl}-2-oxo-2H-pyridin-1-ylmethyl) ester]
dose response on pharmacodynamic measures ([1]; 25-600 mg): did not show a consistent dose response | peak VAS scores: feeling any alcohol effects, feeling drunk, liking the effects of alcohol ([1]; all dose levels vs placebo): Peak scores for placebo were higher than scores for all compound (2) dose levels | peak breath alcohol concentrations compared with placebo [2]: slightly higher
